Measured values taken from patent US10052310B2, “Separase inhibitors and uses thereof” (Baylor College of Medicine, priority 2013, dated 2018).
Entries after “also recorded” stand apart in the source; their conditions may differ.

How the values were obtained:
[1] = biological target: T1, Separase (Homo sapiens, UniProt Q14674); assay: In vitro cleavage of Myc-Rad21 assay; type: biochemical; conditions: Sepin-1 50 μm; in vitro transcribed and translated Myc-Rad21
T1 construct: made in house; host or cells: 293T cells; released from IgG-Agarose by TEV protease
Description: Myc-Rad21 protein was prepared by using pCS2MT Rad21 plasmid ([…]) as the template and the TNT SP6 High-Yield Wheat Germ Protein Expression kit (Promega, Madison, Wis.). Myc-Rad21 protein was mixed with Separase with or without the presence of Sepin-1. The final concentration of Sepin-1 was 50 μM. The reaction mixture was incubated in a 37° C. water bath for 1 h. The cleavage of myc-Rad21 was immunoblotted with Rad21 pAb.

[2] = test system: Molt4 cells; assay: Immunoblotting for apoptosis induction; type: cell-based, human; conditions: various concentrations of Sepin-1, 24 h, Western blot
Description: To determine the mechanism of cell growth inhibition induced by Sepin-1, Applicants performed immunoblotting to investigate if apoptosis is induced after Molt4 cells were treated with Sepin-1. Activation of caspase-3 and cleavage of poly(ADP-ribose) polymerase (Parp-1) are two commonly used parameters in determination of apoptosis. Applicants used Etoposide as a positive control, which is a well-known chemotherapy agent that induces DNA damage by interacting with topoisomerase II. […] In addition, Applicants observed that the effect of Sepin-1 on the activation of caspase-3 and degradation of Parp-1 is similar to that of Etoposide (FIG. 8F).
Preparation of protein samples and Western blot were performed as described previously (J Cell Biol, 2008, 183, 1019-1031; PLoS. ONE., 2013, 8, e69458).

[3] = test system: C57B6 mice; assay: Toxicity of Sepin-1 in mice, single intravenous dose; type: in vivo
Description: To investigate the toxicity in mice, Applicants injected Sepin-1 at a single dose in the range of 50-100 mg/kg body weight into C57B6 mice via tail vein.
Based on the above results, Applicants expanded this study to identify the Severely Toxic Dose (i.e., dose that causes death or irreversible severe toxicity, in 10% of rodents, STD10) using more mice injected at 75 to 90 mg/Kg range. A dose of 80 mg/Kg was estimated as STD10 for Sepin-1 in these mice.
To test Maximum Tolerated Dose (MTD) and No Observable Effect Level (NOEL) of Sepin-1, Applicants applied 200 μl Sepin-1 (diluted in PBS) one time at an acute dose range of 50 to 100 mg/kg body weight to 8-10 weeks old C57B6 mice (˜25 g) through intravenous tail vein injection (n=3/group). Except for the MTD dose, after Sepin-1 injection, the mice were returned to the cage and their reaction to the drug was monitored from one week to several months. Complete necropsy, blood chemistry and pathology of the Sepin-1 injected mice were carried out by the Comparative Pathology Laboratory at the Baylor College of Medicine.

[4] = test system: MC1 triple-negative breast tumor xenograft; assay: Growth inhibition of patient-derived xenograft MC1; type: in vivo, SCID-beige mice; conditions: 10 mg/kg intraperitoneal injection, three week treatment
From the text: (§1) Patient-derived xenograft (PDX) lines MC1 (ER− PR− HER2−) (Proc Natl Acad Sci USA. 100, 2003, 3983-3988) and BCM-5471 (ER− PR− HER2−) (Cancer Res. 73, 2013, 4885-4897) were maintained as described (Cancer Res. 73, 2013, 4885-4897) by serial transplantation into SCID Beige immunocompromised host mice whose endogenous mammary epithelium was removed surgically (Cancer Res. 19, 1959, 515-20).
(§2) For treatment studies, MCF7 xenografts (ER+ PR+ HER2−) were generated by injection of one million cultured cells grown under standard in vitro conditions as previously described (Proc. Natl. Acad. Sci. U. S. A 105, 2008, 13033-13038). Donor tumors for PDX lines MC1 and BCM-5471 were divided into small fragments and retransplanted into the fat pat of recipient SCID Beige mice (5 mice per group). When the tumors reached approximately ˜200 mg, mice were treated with either vehicle or Sepin-1. Sepin-1 was injected at dose of 10 mg/kg daily for 5 days a week for 3 weeks. […] Vehicle injected mice served as controls. Size of the xenografts were measured every four days using calipers and tumor weight was estimated using the guidelines by NCI for xenograft evaluation (http://ncifrederick.cancer.gov/Lasp/Acuc/Frederick/Media/Documents/ACUC14.pdf). After 3 weeks treatment, the tumors were harvested and fixed in 10% Buffed Formalin Phosphate (Fisher Scientific, Pittsburgh, Pa.) overnight. […]

[5] = test system: BCM-5471 triple-negative breast tumor xenograft; assay: Growth inhibition of patient-derived xenograft BCM-5471; type: in vivo, SCID-beige mice; conditions: 10 mg/kg intraperitoneal injection, three week treatment
From the text: as §1, §2

[6] = <80 mg/kg single dose via tail vein

T1 sequence (Q14674 whole entry): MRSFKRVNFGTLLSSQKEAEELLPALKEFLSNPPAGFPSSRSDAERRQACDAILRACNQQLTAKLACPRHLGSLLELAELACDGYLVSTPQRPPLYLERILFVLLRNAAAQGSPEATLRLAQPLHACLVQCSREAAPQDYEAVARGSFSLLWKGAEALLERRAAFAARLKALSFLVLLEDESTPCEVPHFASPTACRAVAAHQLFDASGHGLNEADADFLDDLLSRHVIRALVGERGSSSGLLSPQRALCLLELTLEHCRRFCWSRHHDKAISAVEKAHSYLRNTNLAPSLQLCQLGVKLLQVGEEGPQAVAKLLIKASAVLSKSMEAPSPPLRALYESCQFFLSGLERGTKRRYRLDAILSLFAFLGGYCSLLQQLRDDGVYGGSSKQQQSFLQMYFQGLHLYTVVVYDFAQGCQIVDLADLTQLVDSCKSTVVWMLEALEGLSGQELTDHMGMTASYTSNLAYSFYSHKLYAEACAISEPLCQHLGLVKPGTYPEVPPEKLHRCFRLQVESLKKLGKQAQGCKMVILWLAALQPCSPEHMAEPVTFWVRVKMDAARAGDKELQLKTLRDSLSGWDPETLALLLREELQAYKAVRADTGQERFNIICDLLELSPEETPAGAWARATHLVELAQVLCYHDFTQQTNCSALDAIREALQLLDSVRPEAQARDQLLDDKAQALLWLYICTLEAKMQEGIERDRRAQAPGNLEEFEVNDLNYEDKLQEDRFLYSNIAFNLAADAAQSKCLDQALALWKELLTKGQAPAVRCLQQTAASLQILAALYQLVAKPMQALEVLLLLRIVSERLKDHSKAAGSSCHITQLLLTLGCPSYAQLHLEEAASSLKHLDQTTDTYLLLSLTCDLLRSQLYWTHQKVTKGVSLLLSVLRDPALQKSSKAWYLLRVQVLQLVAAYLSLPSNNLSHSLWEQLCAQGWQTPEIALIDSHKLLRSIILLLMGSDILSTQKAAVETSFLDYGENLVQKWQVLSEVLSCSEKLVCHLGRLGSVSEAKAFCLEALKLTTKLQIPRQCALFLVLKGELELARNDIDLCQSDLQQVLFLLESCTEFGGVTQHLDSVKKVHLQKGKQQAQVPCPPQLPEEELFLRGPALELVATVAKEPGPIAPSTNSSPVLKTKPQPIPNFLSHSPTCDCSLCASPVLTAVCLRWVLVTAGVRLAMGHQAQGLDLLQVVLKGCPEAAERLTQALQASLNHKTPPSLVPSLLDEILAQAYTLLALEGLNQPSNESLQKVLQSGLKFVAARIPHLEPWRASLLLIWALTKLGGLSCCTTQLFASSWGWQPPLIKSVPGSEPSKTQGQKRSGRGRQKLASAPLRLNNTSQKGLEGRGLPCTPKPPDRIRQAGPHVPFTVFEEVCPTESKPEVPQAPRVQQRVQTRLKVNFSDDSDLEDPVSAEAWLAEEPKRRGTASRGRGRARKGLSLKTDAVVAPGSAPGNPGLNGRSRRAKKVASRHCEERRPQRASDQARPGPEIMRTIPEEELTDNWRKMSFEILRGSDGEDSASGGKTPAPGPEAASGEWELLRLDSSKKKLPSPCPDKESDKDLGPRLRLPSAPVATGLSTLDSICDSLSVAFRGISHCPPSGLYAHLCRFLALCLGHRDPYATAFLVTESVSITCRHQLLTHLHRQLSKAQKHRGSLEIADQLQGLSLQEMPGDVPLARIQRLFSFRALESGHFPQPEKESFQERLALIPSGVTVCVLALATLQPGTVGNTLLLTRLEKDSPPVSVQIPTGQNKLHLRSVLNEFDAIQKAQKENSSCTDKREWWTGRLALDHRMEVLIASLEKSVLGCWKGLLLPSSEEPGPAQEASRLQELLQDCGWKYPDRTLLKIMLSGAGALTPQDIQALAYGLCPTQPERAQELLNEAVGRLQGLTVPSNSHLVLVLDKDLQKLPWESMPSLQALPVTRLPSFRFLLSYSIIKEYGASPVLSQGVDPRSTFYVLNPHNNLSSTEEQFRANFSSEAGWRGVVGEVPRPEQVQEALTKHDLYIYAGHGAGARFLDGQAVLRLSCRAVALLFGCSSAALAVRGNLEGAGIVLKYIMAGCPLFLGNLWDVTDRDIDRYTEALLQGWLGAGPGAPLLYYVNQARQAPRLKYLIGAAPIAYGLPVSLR

## CC1(C)[N+]([O-])=c2ccc([N+](=O)[O-])cc2=[N+]1[O-] [Sepin-1, 2,2-dimethyl-5-nitro-2H-benzimidazole-1,3 dioxide]
[1]
  inhibition of Rad21 cleavage by activated Separase: could inhibit the Rad21 cleavage by activated Separase; also recorded: inhibits the cleavage of Separase substrate Rad21
[2]
  activation of caspase-3: caspase-3 proenzyme was induced and activated
  cleavage of poly(ADP-ribose) polymerase (Parp-1): Parp-1 cleavage
[3]; 90 mg/kg single dose via tail vein
  time to death after injection: 30 to 90 min
[3]; [6]
  effect of dose <80 mg/kg: no apparent effect
  survival after injection: over 6 months
[3]; mice injected at 75 to 90 mg/Kg range
  Severely Toxic Dose in 10% of rodents (STD10): 80 mg/kg
[3]; mouse, in vivo
  histopathology of major organs: no significant lesions in major organs
[4]
  inhibition of growth of xenograft MC1 tumors versus vehicle: 70%
[5]
  growth of xenograft BCM-5471 versus vehicle: no significant difference in growth; also recorded: more sensitive to Sepin-1 than MC-1 tumors
